Data on one compound can be found in paper PMC4233179 (Molecular cancer research : MCR, 2014).

In this assay the target is T1, NEDD4-1 (Homo sapiens, UniProt P46934).
T1 sequence (P46934 1-1319): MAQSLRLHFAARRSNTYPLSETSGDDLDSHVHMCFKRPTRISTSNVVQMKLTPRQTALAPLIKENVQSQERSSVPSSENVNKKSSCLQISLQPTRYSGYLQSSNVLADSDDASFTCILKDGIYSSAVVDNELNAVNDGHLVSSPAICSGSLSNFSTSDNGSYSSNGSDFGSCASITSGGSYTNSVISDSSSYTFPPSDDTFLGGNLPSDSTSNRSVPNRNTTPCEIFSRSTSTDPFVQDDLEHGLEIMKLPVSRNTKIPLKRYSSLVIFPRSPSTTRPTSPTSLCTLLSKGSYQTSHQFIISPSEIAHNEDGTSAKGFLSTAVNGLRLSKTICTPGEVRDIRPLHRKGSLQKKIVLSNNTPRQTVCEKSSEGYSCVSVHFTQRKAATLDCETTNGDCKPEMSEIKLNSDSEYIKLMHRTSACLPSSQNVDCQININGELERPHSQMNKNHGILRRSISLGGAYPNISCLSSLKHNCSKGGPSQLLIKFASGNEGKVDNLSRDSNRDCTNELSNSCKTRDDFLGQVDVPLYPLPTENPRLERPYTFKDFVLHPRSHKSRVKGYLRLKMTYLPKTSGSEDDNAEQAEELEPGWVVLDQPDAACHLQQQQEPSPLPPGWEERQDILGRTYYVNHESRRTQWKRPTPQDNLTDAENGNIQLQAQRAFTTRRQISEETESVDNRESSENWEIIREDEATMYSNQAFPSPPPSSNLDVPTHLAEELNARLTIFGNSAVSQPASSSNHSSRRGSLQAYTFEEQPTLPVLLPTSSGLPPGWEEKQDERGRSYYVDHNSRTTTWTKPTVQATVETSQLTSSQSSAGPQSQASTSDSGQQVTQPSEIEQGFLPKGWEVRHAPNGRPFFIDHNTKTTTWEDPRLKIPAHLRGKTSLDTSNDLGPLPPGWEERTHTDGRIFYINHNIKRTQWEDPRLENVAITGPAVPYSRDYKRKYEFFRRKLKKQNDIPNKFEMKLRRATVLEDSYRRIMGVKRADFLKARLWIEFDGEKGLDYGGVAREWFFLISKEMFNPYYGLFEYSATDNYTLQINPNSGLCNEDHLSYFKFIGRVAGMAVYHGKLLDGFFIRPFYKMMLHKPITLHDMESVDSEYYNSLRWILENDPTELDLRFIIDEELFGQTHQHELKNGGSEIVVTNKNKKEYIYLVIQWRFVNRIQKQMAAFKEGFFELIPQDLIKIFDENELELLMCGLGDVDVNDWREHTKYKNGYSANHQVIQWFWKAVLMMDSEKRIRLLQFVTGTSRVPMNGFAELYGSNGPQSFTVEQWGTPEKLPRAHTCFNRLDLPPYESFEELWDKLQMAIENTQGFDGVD
Description: isothermal titration calorimetry. The class given is binding.

For orientation: Kd means the concentration at which binding is half-saturated. A lower Kd goes with a tighter complex. With `OCc1c[nH]c2ccccc12` [I3C, indole-3-carbinol], the Kd was ~88.1 µM.
